Our source for the IC50 and Ki values is patent publication US8193191B2, “Urotensin II receptor antagonists” (Janssen Pharmaceutica N.V., priority 2006, dated 2012).

Where two headings read alike, the source gives them in different places. Some results are limits rather than exact numbers.

The target in test [1] is T1, Human UII receptor, 6D9 human rhabdomyosarcoma cells (Homo sapiens, UniProt Q9UKP6).
T1 construct: 6D9: isolated by dilution subcloning of RMS13 cells, ATCC® Number: CRL-2061; host or cells: 6D9 human rhabdomyosarcoma cells (subclone of RMS13)
T1 sequence (Q9UKP6 1-389): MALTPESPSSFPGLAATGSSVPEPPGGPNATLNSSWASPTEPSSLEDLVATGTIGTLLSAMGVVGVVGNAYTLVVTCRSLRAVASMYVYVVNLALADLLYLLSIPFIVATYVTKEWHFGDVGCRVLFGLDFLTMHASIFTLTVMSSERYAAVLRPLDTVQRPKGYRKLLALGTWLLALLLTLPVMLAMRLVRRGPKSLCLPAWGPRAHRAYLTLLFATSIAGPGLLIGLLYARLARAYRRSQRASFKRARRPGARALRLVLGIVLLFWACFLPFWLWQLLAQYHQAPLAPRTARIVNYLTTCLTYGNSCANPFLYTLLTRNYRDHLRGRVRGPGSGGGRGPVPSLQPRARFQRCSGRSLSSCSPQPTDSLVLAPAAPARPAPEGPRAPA
The test is described as follows: Human UII Calcium Mobilization Assay. The settings on record: average value, FLIPR TETRA, read-out: Human UII Ca^+ Mobilization Average IC50. The class given is cell-based. The procedure, abridged:
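FLIPR calcium responses were recorded for 4 minutes after room-temperature addition of test antagonist and U-II, in dye-loaded human 6D9 cells (37° C, 45 min; HBSS/HEPES with probenecid 1.25 mM). Compounds serially diluted in HBSS/HEPES, up to 0.1% DMSO; curves gave IC50 and EC50.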
On the technique in general: Calcium assays in cells follow changes in intracellular calcium, usually with a dye or a luminescent sensor.

The target in test [2] is T2, endogenous human UII receptor (Homo sapiens, UniProt Q9UKP6).
T2 sequence (Q9UKP6 1-389): T1 sequence (Q9UKP6 1-389)
The test is described as follows: Human Radioligand Binding Assay ((^125I)-U-II binding to human skeletal muscle myoblasts).

The target in test [3] is T3, rat GPR14 (U-II receptor) (Rattus norvegicus, UniProt P49684).
T3 construct: expressed in transfected cells
T3 sequence (P49684 1-386): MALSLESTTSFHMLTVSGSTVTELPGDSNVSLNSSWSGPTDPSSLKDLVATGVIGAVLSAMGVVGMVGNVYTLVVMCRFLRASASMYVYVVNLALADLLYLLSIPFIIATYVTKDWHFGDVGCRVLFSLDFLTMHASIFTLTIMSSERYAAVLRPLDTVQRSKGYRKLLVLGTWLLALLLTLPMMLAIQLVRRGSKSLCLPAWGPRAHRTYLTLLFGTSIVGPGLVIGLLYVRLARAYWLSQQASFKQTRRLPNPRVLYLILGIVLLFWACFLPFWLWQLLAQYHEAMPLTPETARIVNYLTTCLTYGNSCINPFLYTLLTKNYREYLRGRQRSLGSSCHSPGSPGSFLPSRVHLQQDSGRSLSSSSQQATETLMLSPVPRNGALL
The test is described as follows: Rat UII Calcium Mobilization FLIPR Assay. The class given is cell-based. As to conditions: average value for the compound tested; read-out: Rat UII FLIPR Average IC50. Put shortly:
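Fluorescent calcium signals were recorded at room temperature (23° C) by FLIPR. Stable rat U-II receptor CHO lines had been dye-loaded for 1 h at 37° C in pH 7.4 HBSS containing 20 mM HEPES, 0.1% BSA and 2.5 mM probenecid.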

On to `COc1ccc([C@@H](CCCNC(=O)c2c(C)n[nH]c2C)N2C(=O)c3cccc(N4CCN([C@H](C)c5ccccc5)CC4)c3C2=O)cc1OC` [Cpd 215, (R)-3,5-dimethyl-1H-pyrazole-4-carboxylic acid (4-(3,4-dimethoxy-phenyl)-4-{1,3-dioxo-4-[4-(1R)-(1-phenyl-ethyl)-piperazin-1-yl]-1,3-dihydro-isoindol-2-yl}-butyl)-amide], for which the IC50 in test [1] was 0.037 µM; in test [3], 0.011 µM. For the same molecule, in test [2] (read-out: Human UII Average Binding Ki, average value, (^125I)-U-II binding to human skeletal muscle myoblasts (HSMM), 25° C., 3 h), the Ki turned out to be 0.087 µM.

Consider `COc1ccc([C@@H](CCNC(=O)c2cnoc2C)N2C(=O)c3cccc(N4CCN([C@H](C)c5ccccc5)CC4)c3C2=O)cc1OC` [Cpd 217, (R)-5-methyl-isoxazole-4-carboxylic acid (3-(3,4-dimethoxy-phenyl)-3-{1,3-dioxo-4-[4-(1R)-(1-phenyl-ethyl)-piperazin-1-yl]-1,3-dihydro-isoindol-2-yl}-propyl)-amide], for which the IC50 is 1 µM in test [1] and 0.014 µM in test [3]. Affinity in test [2] was put at a Ki of 0.032 µM.

Regarding `CCN1CCN(c2cccc3c2C(=O)N([C@H](CCCOCC(=O)O)c2ccc(OC)c(OC)c2)C3=O)CC1` [Cpd 218, (R)-{4-(3,4-dimethoxy-phenyl)-4-[4-(4-ethyl-piperazin-1-yl)-1,3-dioxo-1,3-dihydro-isoindol-2-yl]-butoxy}-acetic acid], the figures for the IC50 in test [1] and in test [3] were 2.4 µM and 0.24 µM, respectively. Also, in test [2], the Ki was over 0.3 µM.

For the molecule `COc1ccc([C@@H](CCNS(=O)(=O)c2cn(C)c(C)n2)N2C(=O)c3cccc(N4CCN([C@H](C)c5ccccc5)CC4)c3C2=O)cc1OC` [Cpd 219, (R)-1,2-dimethyl-1H-imidazole-4-sulfonic acid (3-(3,4-dimethoxy-phenyl)-3-{1,3-dioxo-4-[4-(1R)-(1-phenyl-ethyl)-piperazin-1-yl]-1,3-dihydro-isoindol-2-yl}-propyl)-amide], the IC50 turned out to be 1 µM in test [1] and 0.022 µM in test [3]. Moreover, affinity in test [2] was put at a Ki of 0.044 µM.

With `COc1ccc([C@@H](CCNS(=O)(=O)O)N2C(=O)c3cccc(N4CCN([C@H](C)c5ccccc5)CC4)c3C2=O)cc1OC` [Cpd 220, (R)-(3-(3,4-dimethoxy-phenyl)-3-{1,3-dioxo-4-[4-(1R)-(1-phenyl-ethyl)-piperazin-1-yl]-1,3-dihydro-isoindol-2-yl}-propyl)-sulfamic acid], the IC50 is 0.17 µM in test [1] and 0.023 µM in test [3]. Moreover, in test [2], the Ki came to 0.011 µM.

In the case of `COc1ccc([C@@H](CCNC(=O)c2ccncc2)N2C(=O)c3cccc(N4CCN([C@H](C)c5ccccc5)CC4)c3C2=O)cc1OC` [Cpd 221, (R)-N-(3-(3,4-dimethoxy-phenyl)-3-{1,3-dioxo-4-[4-(1R)-(1-phenyl-ethyl)-piperazin-1-yl]-1,3-dihydro-isoindol-2-yl}-propyl)-isonicotinamide], the IC50 in test [1] came to 0.91 µM; in test [3], 0.015 µM. In test [2], the Ki amounted to 0.072 µM.

Turning to `COc1ccc([C@@H](CCNS(=O)(=O)Cc2ccccc2)N2C(=O)c3cccc(N4CCN([C@H](C)c5ccccc5)CC4)c3C2=O)cc1OC` [Cpd 222, (R)-N-(3-(3,4-dimethoxy-phenyl)-3-{1,3-dioxo-4-[4-(1R)-(1-phenyl-ethyl)-piperazin-1-yl]-1,3-dihydro-isoindol-2-yl}-propyl)-C-phenyl-methanesulfonamide], the IC50 amounted to 1.5 µM in test [1] and 0.025 µM in test [3]. The same molecule had a Ki in test [2] of 0.14 µM.

`COc1ccc([C@@H](CCNS(=O)(=O)c2c(C)n[nH]c2C)N2C(=O)c3cccc(N4CCN([C@H](C)c5ccccc5)CC4)c3C2=O)cc1OC` [Cpd 223, (R)-3,5-dimethyl-1H-pyrazole-4-sulfonic acid (3-(3,4-dimethoxy-phenyl)-3-{1,3-dioxo-4-[4-(1R)-(1-phenyl-ethyl)-piperazin-1-yl]-1,3-dihydro-isoindol-2-yl}-propyl)-amide]: the IC50 amounted to 0.24 µM in test [1] and 0.012 µM in test [3]. Affinity in test [2] was put at a Ki of 0.12 µM.

`COc1ccc([C@@H](CCCNS(=O)(=O)c2cccs2)N2C(=O)c3cccc(OCCCN(C)C)c3C2=O)cc1OC` [Cpd 224, (R)-thiophene-2-sulfonic acid {4-(3,4-dimethoxy-phenyl)-4-[4-(3-dimethylamino-propoxy)-1,3-dioxo-1,3-dihydro-isoindol-2-yl]-butyl}-amide]: the results for the IC50 in test [1] and in test [3] were 2 µM and 0.34 µM, respectively. Moreover, in test [2], the Ki was over 0.3 µM.

As for `COc1cc(Br)c(CN2C(=O)c3cccc(N4CCN([C@H](C)c5ccccc5)CC4)c3C2=O)cc1OC` [Cpd 225, 2-(2-bromo-4,5-dimethoxy-benzyl)-4-[4-(1R)-(1-phenyl-ethyl)-piperazin-1-yl]-isoindole-1,3-dione], the half-inhibitory concentration (IC50) in test [1] was over 10 µM; in test [3], 1.5 µM. The Ki in test [2] was over 0.3 µM.

`COc1ccc(CN2C(=O)c3ccc(N4CCN([C@H](C)c5ccccc5)CC4)cc3C2=O)cc1OC` [Cpd 226, 2-(3,4-dimethoxy-benzyl)-5-[4-(1R)-(1-phenyl-ethyl)-piperazin-1-yl]-isoindole-1,3-dione]: the IC50 in test [1] is over 10 µM; in test [3], 10 µM. In test [2], this molecule gave a Ki of over 0.3 µM.

In the case of `CCN1CCN(c2cccc3c2C(=O)N([C@H](CCCOCc2c(F)cccc2F)c2ccc(OC)c(OC)c2)C3=O)CC1` [Cpd 227, (R)-2-[4-(2,6-difluoro-benzyloxy)-1-(3,4-dimethoxy-phenyl)-butyl]-4-(4-ethyl-piperazin-1-yl)-isoindole-1,3-dione], the figures for the IC50 in test [1] and in test [3] were 2.9 µM and 0.16 µM, respectively. For the same molecule, the Ki in test [2] was over 0.3 µM.

`COc1ccc([C@@H](CCCN(C)S(=O)(=O)O)N2C(=O)c3cccc(N4CCN([C@H](C)c5ccccc5)CC4)c3C2=O)cc1OC` [Cpd 228, (R)-(4-(3,4-dimethoxy-phenyl)-4-{1,3-dioxo-4-[4-(1R)-(1-phenyl-ethyl)-piperazin-1-yl]-1,3-dihydro-isoindol-2-yl}-butyl)-methyl-sulfamic acid]: the IC50 was 0.78 µM in test [1] and 0.049 µM in test [3]. This molecule returned a Ki in test [2] of 0.025 µM.

On to `COc1ccc([C@@H](CCCNS(=O)(=O)c2cccs2)N2C(=O)c3cccc(OCCN(C)C)c3C2=O)cc1OC` [Cpd 229, (R)-thiophene-2-sulfonic acid {4-(3,4-dimethoxy-phenyl)-4-[4-(2-dimethylamino-ethoxy)-1,3-dioxo-1,3-dihydro-isoindol-2-yl]-butyl}-amide], for which the IC50 in test [1] is 1.7 µM; in test [3], over 0.1 µM. Also, affinity in test [2] was put at a Ki of 0.32 µM.

In the case of `CCN1CCN(c2cccc3c2C(=O)N(C(c2cccc(NCc4ccccc4)c2)c2ccc(OC)c(OC)c2)C3=O)CC1` (stereo not drawn) [Cpd 230, 2-[(3-benzylamino-phenyl)-(3,4-dimethoxy-phenyl)-methyl]-4-(4-ethyl-piperazin-1-yl)-isoindole-1,3-dione], the results for the IC50 in test [1] and in test [3] were 1.9 µM and 0.29 µM, respectively. This molecule also gave a Ki in test [2] of over 0.3 µM.

In the case of `CCN1CCN(c2cccc3c2C(=O)N(C(c2cccc(NS(=O)(=O)O)c2)c2ccc(OC)c(OC)c2)C3=O)CC1` (stereo not drawn) [Cpd 231, (3-{(3,4-dimethoxy-phenyl)-[4-(4-ethyl-piperazin-1-yl)-1,3-dioxo-1,3-dihydro-isoindol-2-yl]-methyl}-phenyl)-sulfamic acid], the results for the IC50 in test [1] and in test [3] were 3.4 µM and 0.68 µM, respectively. The same molecule yielded a Ki in test [2] of 0.511 µM.

By IC50 is commonly meant the concentration that inhibits the measured activity by half. The Ki is a dissociation constant, usually derived from enzyme kinetics or from competition with a known ligand.
